Values joined by “and” are separate entries in the source; they are usually repeats but may differ in a detail not shown here. Identical values can stand only once.
How the values were obtained:
[1] = test system: anaphylaxis reaction to inhalated antigen; assay: Antigen inhalation test on passive sensitized guinea pig (experimental asthma model); type: in vivo; details: 200 mg/kg po
Procedure: The test compound and Tranilast were respectively suspended at the time of use in 5% gum arabic solution containing 0.1% Tween 80 at the rate of 40 mg/ml, and were perorally administered at the rate of 0.5 ml per 100 g body weight of the animal.
DSCG was dissolved at the time of use in physiological saline solultion for injection at the rate of 5.0 mg/ml, and was intravenously injected at the rate of 0.1 ml per 100 g body weight of the animal.
Anti-ovalbumin rabbit serum diluted with physiological saline solution for injection so as tc contain anti-ovalbumin rabbit antibody at the rate of 0.187 mg N/ml was intravenously administered to guinea pig at the rate of 0.1 ml per 100 g of body weight and it was passively sensitized.
Twenty-four hours later, the suspension of the compound prepared in (1) above was perorally or intravenously administered to the animal. The animal was put in the inhalation chamber one hour after the administration in case of the peroral administration and five minutes after the administration in case of the intravenous administration, and 2% physiological saline solution of antigen ovalbumin was inhaled by spraying. Over 10 minutes' period from the time immediately after the forced inhalation, the time until its fall attributed to anaphylaxis reaction was recorded, and the numbers of alive and dead animals after lapse of 10 minutes were also counted.

[2] = test system: passive systemic anaphylaxis (PSA); assay: Preventive activity against passive systemic anaphylaxis (PSA) in guinea pig; type: in vivo, Hartley strain female guinea pig
Procedure: Effect of the compound on prevention of death by passive systemic anaphylaxis was examined in guinea pig.
Normal Hartley strain female guinea pig (body weight, 240-260 g) was sensitized by intravenous administraticn of anti-ovalbumin rabbit serum. It was perorally administered with the compound 11 in the amount of 200 mg/kg. One hour later, it was intravenously administered with 2% physiological saline solution of antigen ovalbumin at the rate of 0.05 ml. Thereafter, the state was observed, and the time (seconds) until death was measured.

[3] = Acute toxicity LD50 in mice (Test Example 8); details: mouse, in vivo, one week, Probit method
Procedure: (§1) ddy-Strain mice (male) and Wistar strain rats were used to obtain LD50 values.
(§2) According to the ordinary procedure, suspension or solution of test sample was administered to the animals. From the number of the died animals until one week after the administration, LD50 values were obtained by Probit method.

[4] = Acute toxicity LD50 in rats (Test Example 8); details: rat, in vivo, po; one week; Probit method; read-out: LD50 value (mg/kg body weight) Rat p.o.
Procedure: as §1, §2

## O=C(Nc1ccccc1C(=O)O)C(=Cc1ccccc1)C(=O)Nc1ccccc1C(=O)O [Compound 11, 2,2'-[(1,3-dioxo-2-phenylmethylene-1,3-propanediyl)diimino]bisbenzoic acid]
[1]
  Extended rate (%): 43.5%
  preventive effect on anaphylaxis reaction (in words): strong preventive effect
[1]; N 5
  Average time for falling Mean ± S.E.: 223.0 ± 15.7 s
[1]; N 5, observed 10 minutes, # shows death
  Required time (sec.) for falling and Number of death (#), single animals: 194 s and 227 s and 248 s and > 600 s
[2]; 200 mg/kg perorally, control group 294.9 seconds
  average living time: 441.7 s
[2]; 200 mg/kg po
  Extended rate (%): 49.8%
  anti-PSA activity (in words): statistically significant anti-PSA activity
[2]; 200 mg/kg po, N 10
  Ave. time to death Mean ± S.E.: 441.70 ± 21.5 s
  Required time (sec.) to death, single animals: 431 s and 548 s and 488 s and 475 s and 367 s and 492 s and 485 s and 352 s and 348 s
[3]; iv, read-out: LD50 value (mg/kg body weight) Mouse i.v.
  LD50 at 168 h: 344 mg/kg
[3]; po, read-out: LD50 value (mg/kg body weight) Mouse p.o.
  LD50 at 168 h: > 10000 mg/kg
[4]
  LD50 at 168 h: > 10000 mg/kg

— patent US4822791A, “Pharmaceutical compositions of-2,2-1,1-[bis-2,2'-(3,1-benzoxazin-4-one)9 ethylenes” (priority 1984, dated 1989)
